These results are taken from paper PMC7867324, “Design, Synthesis and Biological Evaluation of New Pyrimidine Derivatives as Anticancer Agents” (Molecules, 2021).

Read-outs that look alike come from different tables or passages of the source.

In data set [1] the test system is tongue squamous cell carcinoma CAL27. Description: In vitro proliferation assay (sulforhodamine B), CAL27. Format: cell-based, human. Particulars: Homo sapiens. As for the experimental part:
(§1) The possible antitumoral activity of these new compounds was analyzed by the effects exerted on the proliferation of five human tumor cell lines of different histotype. Therefore, the modifications on cell viability and replication determined by the treatment with each single compound were evaluated. The following human tumor cell lines triple-negative breast cancer MDA-MB231, colon carcinoma HT-29, glioblastoma multiforme U-87 MG, tongue squamous cell carcinoma CAL27 and pharynx squamous cell carcinoma FaDu were treated for 24 and 48 h with 10, 20, 30, 40, 50 and 60 μM of each single compound.
(§2) Anti-proliferative activities are reported in Table 2 (compounds 1b–g, 3) and Table 3 (compounds 2a–f) in comparison with reference compound 1a.
(§3) The following human tumor cell lines were utilized in the present study: glioblastoma multiforme U-87 MG, triple-negative breast cancer MDA-MB231, colon carcinoma HT-29, tongue squamous cell carcinoma CAL27 and pharynx squamous cell carcinoma FaDu, all of which obtained from the American Type Culture Collection (Manassas, VA, USA). In addition, human dermal fibroblast primary cultures (HF) used as control of non-transformed cells, had been previously established in our laboratory.
(§4) The cells were grown at 37 °C and 5% CO2 in Dulbecco’s modified Eagle’s medium or RPMI 1640 medium supplemented with 10% fetal bovine serum, 2 mM glutamine and 50 U/mL penicillin-streptomycin (Sigma-Aldrich).
(§5) All compounds were solubilized in dimethylsulfoxide (DMSO) (Sigma) for a 10 mM stock solution and utilized to final concentrations from 100 nM to 60 μM for 24 and 48 h. Control cells were treated with equivalent amounts of DMSO in every experiment.
(§6) To determine cytotoxicity, a sulforhodamine B colorimetric assay was performed. Cells (1.5 × 10^4) were plated in a 96-well plate, grown for 24 h and then treated with different concentrations of each compound for 24 and 48 h at 37 °C. Cells were then fixed with 50% trichloroacetic acid for 1 h at 4 °C and stained for 30 min at room temperature with 0.4% sulforhodamine B in 1% acetic acid. Excess dye was removed by washing four times with 1% acetic acid. Protein-bound dye was dissolved in 10 mM Tris (pH 10), and optical density was determined at 510 nm using a microplate reader. Each experiment was performed three times and the media was calculated.

Data set [2] deals with triple-negative breast cancer MDA-MB231. Nature of the data set: In vitro proliferation assay (sulforhodamine B), MDA-MB231. Particulars: Homo sapiens. Format: cell-based, human. The procedure: as §1, §2, §3, §4, §5, §6
Data set [3] deals with human dermal fibroblasts (HF). Nature of the data set: Cytotoxicity on normal cells (sulforhodamine B), HF. Type of data set: cell-based. Particulars: 1, 10, 20, 50 μM, 24 h and 48 h, normal fibroblasts. The procedure:
as §3, §4, §5, §6

Assay in data set [4]: as above
Format: cell-based, human. Particulars: human, human dermal fibroblast primary cultures (HF), 48 h. The procedure: as §3, §4, §5, §6

Data set [5] relates to glioblastoma multiforme U-87 MG. Nature of the data set: In vitro proliferation assay (sulforhodamine B), U-87 MG. Format: cell-based, human. Particulars: Homo sapiens, U-87 MG. The procedure:
as §1, §2, §3, §4, §5, §6

For data set [6], the system named is colon carcinoma HT-29. Description: In vitro proliferation assay (sulforhodamine B), HT-29. Type of data set: cell-based, human. The settings on record: Homo sapiens. As for the experimental part:
as §1, §2, §3, §4, §5, §6

Data set [7] relates to five human tumor cell lines (HT-29, U-87 MG, MDA-MB231, CAL27, FaDu). Nature of the data set: In vitro proliferation assay, summary over all tested tumor cell lines. Particulars: for EC50: Homo sapiens, all tested tumor cell lines, read-out: EC50s over the tested cell lines. Format: cell-based. As for the experimental part:
as §1, §2, §3, §4, §5, §6

In data set [8] the test system is pharynx squamous cell carcinoma FaDu. Description: In vitro proliferation assay (sulforhodamine B), FaDu. Type of data set: cell-based, human. The settings on record: Homo sapiens, FaDu. The procedure: as §1, §2, §3, §4, §5, §6
The subject of data set [9] is human cancer cells of different histotypes. Set-up: method as in PMID 30900116. The settings on record: cited from earlier work.

One may read the CC50 as the concentration that lowers cell viability or growth by half. Higher therefore signals better tolerance by the cells. Consider `CCN(CC)CCCNc1cc(N)nc(N(Cc2ccc(F)cc2)c2cccc(Cl)c2)n1` [Compound 2a, N^2-(3-chlorophenyl)-N^4-(3-(diethylamino)propyl)-N^2-(4-fluorobenzyl)pyrimidine-2,4,6-triamine], for which the EC50 was 9.7 µM in data set [1] (CAL-27, 24 h, 24 h); 4.3 µM in data set [1] (CAL-27, 48 h, 48 h); 18 µM in data set [2] (MDA-MB-231, 24 h, 24 h); 7.9 µM in data set [2] (MDA-MB-231, 48 h, 48 h); 22 µM in [5] (24 h); 7.5 µM in data set [5] (48 h). Moreover, the EC50 in data set [6] (HT-29, 24 h, 24 h) was 10.2 µM; in data set [6] (HT-29, 48 h, 48 h), 5.4 µM; in data set [7] (24 h of treatment), 10 to 26 µM; in data set [7] (48 h of treatment), 5 to 8 µM; in [7] (time not given), 4 to 8 µM; in data set [8] (24 h), 26.2 µM. Also, in [8] (48 h), the EC50 was 8.5 µM. The “negative regulation of growth (cell viability, Figure 3)” value in data set [3] is “only weakly significant and exclusively at high concentrations at 48 h”; in data set [7] (1, 10, 20, 50 μM, 24 h and 48 h, each tumor cell line), “significant at various concentrations and times”. Besides, the CC50 at 48 h in data set [4] is 50.2 µM. Besides, the “fold more active than 1a” value in data set [7] (vs hit 1a (RDS 3442), all tested cell lines, 48 h of treatment) is 4–13 fold.
Regarding `CCN(CC)CCCNc1cc(N)nc(Nc2cccc(Cl)c2)n1` [Compound 1a, N^2-(3-Chlorophenyl)-N^4-(3-(diethylamino)propyl)pyrimidine-2,4,6-triamine], the EC50 is 54.2 µM in [1] (CAL-27, 48 h, 48 h); 34.8 µM in data set [2] (MDA-MB-231, 48 h, 48 h); more than 60 µM in [5] (48 h); 51.8 µM in data set [6] (HT-29, 48 h, 48 h); more than 60 µM in [8] (48 h). This compound gave a CC50 at 48 h in data set [4] of more than 60 µM. For the same compound, the “effect on cell cycle” value in data set [9] (20 μM) was “upregulation of p21 and p27 and blockage of the cell cycle at G0/G1”. The induction of apoptosis entry in [9] (30–50 μM) was “induced apoptosis”.
